Test results from the supplement of paper PMC13380429.
± gives the standard deviation of the averaged measurements.

Columns and labels:
Conditions in all cases: 72 h
HepG2 [1] = assay: drug sensitivity score (DSS) for viability; higher = more toxic; extreme values may be limits of the assay
U2OS [2] = assay: as above
Vero E6 [3] = assay: as above
Caco-2 [4] = assay: as above
Calu-3 [5] = assay: as above
HepG2 [6] = assay: cell viability relative to DMSO; higher = less toxic
U2OS [7] = assay: as above
Vero E6 [8] = assay: as above
Caco-2 [9] = assay: as above
Calu-3 [10] = assay: as above
HepG2 [11] = assay: relative viability EC50 (midpoint between 100% and the lowest measured viability); higher = less toxic
U2OS [12] = assay: as above
Vero E6 [13] = assay: as above
Caco-2 [14] = assay: as above
Calu-3 [15] = assay: as above

SMILES | drug sensitivity score (HepG2 [1]) | drug sensitivity score (U2OS [2]) | drug sensitivity score (Vero E6 [3]) | drug sensitivity score (Caco-2 [4]) | drug sensitivity score (Calu-3 [5]) | cell viability (HepG2 [6]; 1 nM) [%] | cell viability (HepG2 [6]; 10 nM) [%] | cell viability (HepG2 [6]; 100 nM) [%] | cell viability (HepG2 [6]; 1000 nM) [%] | cell viability (HepG2 [6]; 10000 nM) [%] | cell viability (U2OS [7]; 1 nM) [%] | cell viability (U2OS [7]; 10 nM) [%] | cell viability (U2OS [7]; 100 nM) [%] | cell viability (U2OS [7]; 1000 nM) [%] | cell viability (U2OS [7]; 10000 nM) [%] | cell viability (Vero E6 [8]; 1 nM) [%] | cell viability (Vero E6 [8]; 10 nM) [%] | cell viability (Vero E6 [8]; 100 nM) [%] | cell viability (Vero E6 [8]; 1000 nM) [%] | cell viability (Vero E6 [8]; 10000 nM) [%] | cell viability (Caco-2 [9]; 1 nM) [%] | cell viability (Caco-2 [9]; 10 nM) [%] | cell viability (Caco-2 [9]; 100 nM) [%] | cell viability (Caco-2 [9]; 1000 nM) [%] | cell viability (Caco-2 [9]; 10000 nM) [%] | cell viability (Calu-3 [10]; 1 nM) [%] | cell viability (Calu-3 [10]; 10 nM) [%] | cell viability (Calu-3 [10]; 100 nM) [%] | cell viability (Calu-3 [10]; 1000 nM) [%] | cell viability (Calu-3 [10]; 10000 nM) [%] | relative viability EC50 (HepG2 [11]) [µM] | relative viability EC50 (U2OS [12]) [µM] | relative viability EC50 (Vero E6 [13]) [µM] | relative viability EC50 (Caco-2 [14]) [µM] | relative viability EC50 (Calu-3 [15]) [µM]
O=c1cc(N2CCOCC2)nc2c3ccccc3ccn12 [compound-401] | 2.5 | 0 | 0 | 0.2 | 0 | 93 | 108 | 99.4 | 82.8 | 78 | 96.2 | 99.8 | 97.2 | 101 | 95.5 | 102 | 97.9 | 98 | 98.3 | 95.9 | 96.8 | 108 | 96.4 | 99.1 | 85.8 | 93.8 | 94.4 | 97.9 | 99.5 | 107 | > 10 | > 10 | > 10 | > 10 | > 10
CC(=O)OCC(=O)[C@@]1(O)CC[C@H]2[C@@H]3CCC4=CC(=O)CC[C@]4(C)[C@H]3C(=O)C[C@@]21C [cortisone-acetate] | 0 | 0 | 0 | 0 | 0 | 90 | 110 | 104 | 110 | 101 | 99.6 | 98.1 | 97 | 101 | 95.1 | 87.9 | 97.5 | 96.4 | 101 | 99.3 | 108 | 95.4 | 101 | 96.3 | 103 | 93.2 | 98.5 | 98.9 | 106 | 101 | > 10 | > 10 | > 10 | > 10 | > 10
CC(C)(C)NCC(O)COc1cccc2[nH]c(C#N)cc12 (stereo not given) [cyanopindolol] | 0 | 0 | 0 | 0 | 0 | 93 | 95.7 | 89.6 | 102 | 95.8 | 100 | 98.8 | 96.7 | 94.7 | 101 | 102 | 103 | 100 | 104 | 97 | 103 | 103 | 95.8 | 99.7 | 97.5 | 85.4 | 105 | 100 | 96.8 | 92.8 | > 10 | > 10 | > 10 | > 10 | > 10
c1ccc(Cn2c(-c3ccc(OC[C@H](C4CCNCC4)n4c(-c5ccccc5)nc5ccccc54)cc3)nc3ccccc32)cc1 [deltarasin] | 4.9 | 5.6 | 6.2 | 6 | 5.1 | 99.7 | 100 | 95 | 110 | -0.3 | 99.9 | 93.9 | 98.7 | 99.9 | -0.3 | 92.9 | 99.3 | 94 | 95.4 | -0.1 | 98.6 | 87.8 | 104 | 95.9 | 2.1 | 105 | 102 | 102 | 107 | 0.1 | 3.62 | 3.14 | 2.8 | 2.85 | 3.51
CC[N+](CC)(CC(=O)Nc1c(C)cccc1C)Cc1ccccc1 [denatonium-benzoate] | 0 | 0 | 0 | 0 | 0 | 100 | 99.3 | 108 | 100 | 116 | 91 | 96.1 | 95.9 | 103 | 104 | 95.1 | 99.2 | 95.3 | 88.9 | 111 | 100 | 102 | 99.8 | 110 | 112 | 96.7 | 101 | 98.3 | 92.8 | 105 | > 10 | > 10 | > 10 | > 10 | > 10
CC/C(=C(/CC)c1ccc(O)cc1)c1ccc(O)cc1 [diethylstilbestrol] | 0 | 0 | 0 | 0.3 | 0 | 111 | 98.8 | 103 | 98.8 | 106 | 98.6 | 94 | 99.5 | 94.3 | 96.8 | 95.1 | 99.8 | 91.2 | 98.3 | 107 | 97.7 | 87.3 | 107 | 106 | 81.5 | 106 | 96.7 | 114 | 103 | 109 | > 10 | > 10 | > 10 | > 10 | > 10
N[C@@H](C(=O)O)c1cc(O)cc(O)c1 [dihydroxyphenylglycine] | 0 | 0 | 0 | 0 | 0 | 95.8 ± 10 | 92 ± 9.4 | 87.9 ± 4.8 | 98.2 ± 2.4 | 102 ± 8.4 | 102.7 ± 0.85 | 97.2 ± 2.8 | 103 | 98.8 ± 0.42 | 101 ± 2 | 99.4 ± 5.7 | 97.5 ± 7 | 98.5 ± 1.9 | 99.6 ± 5.4 | 95.8 ± 4.7 | 102 ± 3.8 | 94.9 ± 1.1 | 92.4 ± 7.5 | 90.8 ± 4.5 | 103 ± 5 | 104 ± 5.4 | 90.5 ± 9.7 | 102 ± 1.1 | 102 ± 6.4 | 105 ± 9.4 | > 10 | > 10 | > 10 | > 10 | > 10
c1ccc2c(c1)[I+]c1ccccc1-2 [diphenyleneiodonium] | 29.3 | 16 | 15.8 | 10.8 | 8.6 | 110 | 87.7 | 14.9 | 8.2 | 2.4 | 95.4 | 95.1 | 64.8 | 39.3 | 20.7 | 94.9 | 95 | 65.9 | 38.9 | 25.1 | 92.9 | 97.3 | 72.3 | 61.9 | 37 | 92.6 | 94.5 | 78.8 | 69.1 | 44.9 | 0.0322 | 0.16 | 0.137 | 0.251 | 0.308
CCOC(=O)[C@H](CCc1ccccc1)N[C@@H](C)C(=O)N1CCC[C@H]1C(=O)O [enalapril] | 0 | 0 | 0 | 0 | 0 | 103 | 95.4 | 98.4 | 109 | 109 | 97.9 | 101 | 99.5 | 98.6 | 102 | 97.2 | 99.3 | 98.2 | 100 | 107 | 92.4 | 97.1 | 84.1 | 102 | 100 | 90.5 | 98.3 | 92.2 | 101 | 91.9 | > 10 | > 10 | > 10 | > 10 | > 10
C[C@]12CC[C@@H]3c4ccc(OC(=O)N(CCCl)CCCl)cc4CC[C@H]3[C@@H]1CC[C@@H]2OP(=O)(O)O [estramustine-phosphate] | 0 | 0 | 0 | 0 | 0 | 98.3 | 90.8 | 101 | 95.4 | 104 | 102 | 100 | 98.7 | 97.3 | 99.1 | 95.1 | 103 | 94.9 | 107 | 92.8 | 115 | 89.9 | 92.2 | 94.3 | 94.9 | 99 | 105 | 90.2 | 99.9 | 116 | > 10 | > 10 | > 10 | > 10 | > 10
CCOc1ccccc1C(N)=O [ethenzamide] | 0 | 0 | 0 | 0 | 0 | 101 | 94.9 | 95.4 | 102 | 91.2 | 106 | 97.9 | 100 | 98.2 | 100 | 104 | 98.1 | 101 | 92.6 | 97.3 | 100 | 97 | 97.6 | 98.9 | 103 | 95.3 | 101 | 99.5 | 98.1 | 103 | > 10 | > 10 | > 10 | > 10 | > 10
CCNC1=Nc2ccc(Cl)cc2C(C)(c2ccccc2)O1 (stereo not given) [etifoxine] | 0 | 0 | 0 | 0 | 0 | 95.7 | 100 | 101 | 107 | 95.3 | 92.1 | 96.9 | 99.8 | 98.3 | 98 | 94.8 | 98.1 | 95.5 | 99.3 | 112 | 90.1 | 102 | 96.1 | 92.2 | 97.3 | 94.4 | 97.2 | 102 | 102 | 90.7 | > 10 | > 10 | > 10 | > 10 | > 10
OC[C@H]1NCC[C@@H](O)[C@@H]1O [fagomine] | 0 | 0 | 0 | 0.3 | 0 | 98.9 | 97.4 | 93.3 | 90.2 | 94.6 | 97.9 | 100 | 93.8 | 97.1 | 94.8 | 95.6 | 93.5 | 93.1 | 94.5 | 92.7 | 89 | 91.9 | 93.8 | 87.2 | 87.9 | 111 | 103 | 97 | 104 | 99.8 | > 10 | > 10 | > 10 | > 10 | > 10
NC(N)=Nc1nc(CSCC/C(N)=N/S(N)(=O)=O)cs1 [famotidine] | 0 | 0 | 0 | 0 | 0 | 106 | 102 | 90.4 | 97.5 | 93.4 | 94.3 | 95.4 | 99.6 | 95 | 99.4 | 113 | 106 | 89.2 | 101 | 94.3 | 107 | 106 | 108 | 97.2 | 109 | 107 | 91.5 | 113 | 105 | 97.7 | > 10 | > 10 | > 10 | > 10 | > 10
